US20120329787A1, “FUNGICIDAL PYRANONES AND OXAZINONES” (E.I. DU PONT DE NEMOURS AND COMPANY, priority 2011, published 2012)
Marks after values point to notes of the source that are not given here.

Legend:
Type in all cases: in vivo
Septoria nodorum = assay: Test E: Septoria glume blotch, spray on wheat seedlings the day before inoculation
Excerpt: General protocol for preparing test suspensions for Tests A-I: the test compounds were first dissolved in acetone in an amount equal to 3% of the final volume and then suspended at the desired concentration (in ppm) in acetone and purified water (50/50 mix by volume) containing 250 ppm of the surfactant Trem® 014 (polyhydric alcohol esters). The resulting test suspensions were then used in Tests A-I. Spraying a 200 ppm test suspension to the point of run-off on the test plants was the equivalent of a rate of 500 g/ha. […] (An asterisk “*” next to the rating value indicates a 40 ppm test suspension was used.) The test suspension was sprayed to the point of run-off on wheat seedlings. […] A dash (-) indicates no test results. All results are for 200 ppm except where followed by an asterisk “*”, which indicates a 40 ppm.

Alternaria solani = assay: Test B: tomato early blight, spray on tomato seedlings the day before inoculation; conditions: for pest or weed control at 200 ppm: Alternaria solani, 168 h, read-out: Test B rating (100 = 100% disease control, 0 = no disease control)
Excerpt: General protocol for preparing test suspensions for Tests A-I: the test compounds were first dissolved in acetone in an amount equal to 3% of the final volume and then suspended at the desired concentration (in ppm) in acetone and purified water (50/50 mix by volume) containing 250 ppm of the surfactant Trem® 014 (polyhydric alcohol esters). The resulting test suspensions were then used in Tests A-I. Spraying a 200 ppm test suspension to the point of run-off on the test plants was the equivalent of a rate of 500 g/ha. […] (An asterisk “*” next to the rating value indicates a 40 ppm test suspension was used.) The test suspension was sprayed to the point of run-off on tomato seedlings. The following day, the seedlings were inoculated with a spore suspension of Alternaria solani (the causal agent of tomato early blight) and incubated in a saturated atmosphere at 27° C. for 48 h, and then moved to a growth chamber at 20° C. for 5 days, after which time visual disease ratings were made. […] A dash (-) indicates no test results. All results are for 200 ppm except where followed by an asterisk “*”, which indicates a 40 ppm.

Septoria tritici = assay: Test F: wheat leaf blotch, spray on wheat seedlings the day before inoculation; conditions: for pest or weed control at 200 ppm: Zymoseptoria tritici, 504 h, read-out: Test F rating (100 = 100% disease control, 0 = no disease control)
Excerpt: General protocol for preparing test suspensions for Tests A-I: the test compounds were first dissolved in acetone in an amount equal to 3% of the final volume and then suspended at the desired concentration (in ppm) in acetone and purified water (50/50 mix by volume) containing 250 ppm of the surfactant Trem® 014 (polyhydric alcohol esters). The resulting test suspensions were then used in Tests A-I. Spraying a 200 ppm test suspension to the point of run-off on the test plants was the equivalent of a rate of 500 g/ha. […] (An asterisk “*” next to the rating value indicates a 40 ppm test suspension was used.) The test suspension was sprayed to the point of run-off on wheat seedlings. The following day, the seedlings were inoculated with a spore suspension of Septoria tritici (the causal agent of wheat leaf blotch) and incubated in a saturated atmosphere at 24° C. for 48 h, and then the seedlings were moved to a growth chamber at 20° C. for 19 additional days, after which time visual disease ratings were made. […] A dash (-) indicates no test results. All results are for 200 ppm except where followed by an asterisk “*”, which indicates a 40 ppm.

[1] = tested on: Puccinia recondita f. sp. tritici; assay: Test G: wheat leaf rust, spray on wheat seedlings after inoculation (curative); conditions: sprayed after inoculation; for pest or weed control at 200 ppm: Puccinia recondita, 96 h, read-out: Test G rating (100 = 100% disease control, 0 = no disease control)
Excerpt: General protocol for preparing test suspensions for Tests A-I: the test compounds were first dissolved in acetone in an amount equal to 3% of the final volume and then suspended at the desired concentration (in ppm) in acetone and purified water (50/50 mix by volume) containing 250 ppm of the surfactant Trem® 014 (polyhydric alcohol esters). The resulting test suspensions were then used in Tests A-I. Spraying a 200 ppm test suspension to the point of run-off on the test plants was the equivalent of a rate of 500 g/ha. […] (An asterisk “*” next to the rating value indicates a 40 ppm test suspension was used.) Wheat seedlings were inoculated with a spore suspension of Puccinia recondita f. sp. tritici (the causal agent of wheat leaf rust) and incubated in a saturated atmosphere at 20° C. for 24 h, and then moved to a growth chamber at 20° C. for 2 days. At the end of this time, the test suspension was sprayed to the point of run-off, and then the seedlings were moved to a growth chamber at 20° C. for 4 days after which time visual disease ratings were made. […] A dash (-) indicates no test results. All results are for 200 ppm except where followed by an asterisk “*”, which indicates a 40 ppm.

Botrytis cinerea = assay: Test A: tomato Botrytis, spray on tomato seedlings the day before inoculation; conditions: for pest or weed control at 200 ppm: Botrytis cinerea, 120 h, read-out: Test A rating (100 = 100% disease control, 0 = no disease control)
Excerpt: General protocol for preparing test suspensions for Tests A-I: the test compounds were first dissolved in acetone in an amount equal to 3% of the final volume and then suspended at the desired concentration (in ppm) in acetone and purified water (50/50 mix by volume) containing 250 ppm of the surfactant Trem® 014 (polyhydric alcohol esters). The resulting test suspensions were then used in Tests A-I. Spraying a 200 ppm test suspension to the point of run-off on the test plants was the equivalent of a rate of 500 g/ha. […] (An asterisk “*” next to the rating value indicates a 40 ppm test suspension was used.) The test suspension was sprayed to the point of run-off on tomato seedlings. The following day, the seedlings were inoculated with a spore suspension of Botrytis cinerea (the causal agent of tomato Botrytis) and incubated in a saturated atmosphere at 20° C. for 48 h, and then moved to a growth chamber at 24° C. for 3 additional days, after which time visual disease ratings were made. […] A dash (-) indicates no test results. All results are for 200 ppm except where followed by an asterisk “*”, which indicates a 40 ppm.

[2] = tested on: Erysiphe graminis f. sp. tritici; assay: Test I: wheat powdery mildew, spray on wheat seedlings the day before inoculation; conditions: for pest or weed control at 200 ppm: Blumeria graminis, 168 h, read-out: Test I rating (100 = 100% disease control, 0 = no disease control)
Excerpt: General protocol for preparing test suspensions for Tests A-I: the test compounds were first dissolved in acetone in an amount equal to 3% of the final volume and then suspended at the desired concentration (in ppm) in acetone and purified water (50/50 mix by volume) containing 250 ppm of the surfactant Trem® 014 (polyhydric alcohol esters). The resulting test suspensions were then used in Tests A-I. Spraying a 200 ppm test suspension to the point of run-off on the test plants was the equivalent of a rate of 500 g/ha. […] (An asterisk “*” next to the rating value indicates a 40 ppm test suspension was used.) The test suspension was sprayed to the point of run-off on wheat seedlings. The following day, the seedlings were inoculated with a spore dust of Erysiphe graminis f. sp. tritici, (the causal agent of wheat powdery mildew) and incubated in a growth chamber at 20° C. for 7 days, after which time visual disease ratings were made. […] A dash (-) indicates no test results. All results are for 200 ppm except where followed by an asterisk “*”, which indicates a 40 ppm.

[3] = tested on: Puccinia recondita f. sp. tritici; assay: Test H: wheat leaf rust, spray on wheat seedlings the day before inoculation; conditions: sprayed before inoculation; for pest or weed control at 200 ppm: Puccinia recondita, 168 h, read-out: Test H rating (100 = 100% disease control, 0 = no disease control)
Excerpt: General protocol for preparing test suspensions for Tests A-I: the test compounds were first dissolved in acetone in an amount equal to 3% of the final volume and then suspended at the desired concentration (in ppm) in acetone and purified water (50/50 mix by volume) containing 250 ppm of the surfactant Trem® 014 (polyhydric alcohol esters). The resulting test suspensions were then used in Tests A-I. Spraying a 200 ppm test suspension to the point of run-off on the test plants was the equivalent of a rate of 500 g/ha. […] (An asterisk “*” next to the rating value indicates a 40 ppm test suspension was used.) The test suspension was sprayed to the point of run-off on wheat seedlings. The following day, the seedlings were inoculated with a spore suspension of Puccinia recondita f. sp. tritici (the causal agent of wheat leaf rust) and incubated in a saturated atmosphere at 20° C. for 24 h, and then moved to a growth chamber at 20° C. for 6 days, after which time visual disease ratings were made Results for Tests A-I are given in Table A. […] A dash (-) indicates no test results. All results are for 200 ppm except where followed by an asterisk “*”, which indicates a 40 ppm.

[4] = 40 ppm test suspension (asterisk)

| Compound | Test I rating (100 = 100% disease control, 0 = no disease control) ([2]; 200 ppm test suspension) [%] | Test E rating (100 = 100% disease control, 0 = no disease control) (Septoria nodorum; [4]) | Test B rating (100 = 100% disease control, 0 = no disease control) (Alternaria solani; [4]) | Test F rating (100 = 100% disease control, 0 = no disease control) (Septoria tritici; [4]) | Test G rating (100 = 100% disease control, 0 = no disease control) [1, 4] | Test A rating (100 = 100% disease control, 0 = no disease control) (Botrytis cinerea; [4]) | Test H rating (100 = 100% disease control, 0 = no disease control) [3, 4] | other results |
| --- | --- | --- | --- | --- | --- | --- | --- | --- |
| COc1cccc(-c2c(-c3ccc(F)cc3F)c(C)oc(=O)c2-c2ccccc2)c1 [Compound 29] | 55 | – | – | – | – | – | – | Test E rating (100 = 100% disease control, 0 = no disease control) (Septoria nodorum; 200 ppm test suspension): 64%; Test B rating (100 = 100% disease control, 0 = no disease control) (Alternaria solani; 200 ppm test suspension): 93%; Test F rating (100 = 100% disease control, 0 = no disease control) (Septoria tritici; 200 ppm test suspension): 99%; Test G rating (100 = 100% disease control, 0 = no disease control) ([1]; 200 ppm test suspension): 32%; Test A rating (100 = 100% disease control, 0 = no disease control) (Botrytis cinerea; 200 ppm test suspension): 99%; Test H rating (100 = 100% disease control, 0 = no disease control) ([3]; 200 ppm test suspension): 100% |
| Cc1oc(=O)c(-c2ccccc2)c(-c2ccccc2Cl)c1-c1ccccc1F [Compound 30] | – | 0* % | 0* % | 94* % | 0* % | 99* % | 91* % | Test I rating (100 = 100% disease control, 0 = no disease control) [2, 4]: 0* % |
| Cc1oc(=O)c(-c2ccccc2)c(-c2ccccc2Cl)c1-c1ccc(F)cc1F [Compound 31] | 0 | 0* % | 0* % | 98* % | 96* % | 100* % | 99* % | – |
| COc1cc(OC)cc(-c2c(-c3ccc(F)cc3F)c(C)oc(=O)c2-c2ccccc2F)c1 [Compound 33, 5-(2,4-difluorophenyl)-4-(3,5-dimethoxyphenyl)-3-(2-fluorophenyl)-6-methyl-2H-pyran-2-one] | – | – | – | – | – | – | – | pest or weed control at 40 ppm (Septoria nodorum; Parastagonospora nodorum, 264 h, 40 ppm test suspension (asterisk), read-out: Test E rating (100 = 100% disease control, 0 = no disease control)): 99%; pest or weed control at 200 ppm (Alternaria solani; 200 ppm test suspension): 100%; pest or weed control at 200 ppm (Septoria tritici; 200 ppm test suspension): 98%; pest or weed control at 200 ppm ([1]; 200 ppm test suspension): 99%; pest or weed control at 200 ppm (Botrytis cinerea; 200 ppm test suspension): 99%; pest or weed control at 200 ppm ([2]; 200 ppm test suspension): 76%; pest or weed control at 200 ppm ([3]; 200 ppm test suspension): 100% |
| COc1cccc(-c2c(-c3ccc(F)cc3F)c(C)oc(=O)c2-c2ccccc2F)c1 [Compound 34] | 90 | – | – | – | – | – | – | Test E rating (100 = 100% disease control, 0 = no disease control) (Septoria nodorum; 200 ppm test suspension): 99%; Test B rating (100 = 100% disease control, 0 = no disease control) (Alternaria solani; 200 ppm test suspension): 99%; Test F rating (100 = 100% disease control, 0 = no disease control) (Septoria tritici; 200 ppm test suspension): 99%; Test G rating (100 = 100% disease control, 0 = no disease control) ([1]; 200 ppm test suspension): 95%; Test A rating (100 = 100% disease control, 0 = no disease control) (Botrytis cinerea; 200 ppm test suspension): 100%; Test H rating (100 = 100% disease control, 0 = no disease control) ([3]; 200 ppm test suspension): 100% |
| Cc1oc(=O)c(-c2ccccc2F)c(-c2ccccc2Cl)c1-c1ccc(F)cc1F [Compound 35] | 97 | 0* % | 68* % | 99* % | 99* % | 100* % | 0* % | – |
| COc1cc(OC)cc(-c2c(-c3c(F)cc(OC)cc3F)c(C)oc(=O)c2-c2ccccc2F)c1 [Compound 39] | 79 | 100* % | 100* % | 100* % | 82* % | 100* % | 100* % | – |
| Cc1oc(=O)c(C)c(-c2ccc(F)cc2F)c1Br [Compound 41, 5-bromo-4-(2,4-difluorophenyl)-3,6-dimethyl-2H-pyran-2-one] | – | – | – | – | – | – | – | pest or weed control at 200 ppm (Septoria nodorum; Parastagonospora nodorum, 264 h, 200 ppm test suspension, read-out: Test E rating (100 = 100% disease control, 0 = no disease control)): 0%; pest or weed control at 200 ppm (Alternaria solani; 200 ppm test suspension): 0%; pest or weed control at 200 ppm (Septoria tritici; 200 ppm test suspension): 0%; pest or weed control at 200 ppm ([1]; 200 ppm test suspension): 0%; pest or weed control at 200 ppm (Botrytis cinerea; 200 ppm test suspension): 67%; pest or weed control at 200 ppm ([2]; 200 ppm test suspension): 0%; pest or weed control at 200 ppm ([3]; 200 ppm test suspension): 0% |
